In patent US4195018A, “3-[(S)-1'-Phenylethylamino]propylaminobleomycin, non-toxic salt thereof, and method for producing same” (Nippon Kayaku Kabushiki Kaisha, priority 1977, dated 1980):
Converted amounts (≈) assume the structure as drawn. “And” between values parts separate entries of the source, which are not always exact repeats. Equal entries are not always repeated. “Also recorded” adds a separate entry of the source.

Key:
[1] = Solubility (physicochemical properties); conditions: solvents as named in the value
[2] = test system: Mycobacterium smegmatis ATCC 607 (Mycobacterium 607); assay: Antimicrobial potency by the cup method, bleomycin A2 as standard; format: cell-based; conditions: for Antimicrobial potency: product batches of the Examples, bleomycin A2 (copper-free form) = 1,000 u/mg; for Antimicrobial potency M. 607: bleomycin A2 standard = 1,000 U/mg
Description: (§1) The antimicrobial potency was assayed by the cup method against Mycobacterium 607 and Bacillus subtilis PCI by using bleomycin A2 as standard (1,000 U/mg).
[Note: The antimicrobial potency was assayed using Mycobacterium smegmatis ATCC 607 as assay organism and assuming the potency of bleomycin A2 (copper-free form) as 1,000 u/mg. The same applies hereinafter.]

[3] = test system: Bacillus subtilis PCI; assay: as above; format: cell-based; conditions: bleomycin A2 standard = 1,000 U/mg
Description: as §1

[4] = test system: mouse Ehrlich cancer (solid tumor); assay: Carcinostatic activity to mouse Ehrlich cancer (solid tumor); format: in vivo, ICR strain mice; conditions: for Percentage inhibition: tumor weight on 15th day vs control; for ID50: Ehrlich solid tumor, 10 doses
Description: Each 2×10^6 cells were transplanted subcutaneously into the inguinal region of ICR strain mice (male, 6 weeks old). After 24 hours, each mouse was administered with test preparations in the same manner as described in 1-2 above. On the 15th day after the subcutaneous transplantation, tumors were removed from each mouse and compared the weight with that of tumors developed in the control group, which had received no treatment, to determine the percentage inhibition.

[5] = test system: lung of mice; assay: Toxicity to the lung of mice (pulmonary fibrosis); format: in vivo, ICR strain mice; conditions: for Grade: Relative value / Incidence: Relative value: Bleomycin complex = 1.0, 5 mg/kg i.p. x 10 days
Description: ICR strain mice (male, 15 weeks old), 12 in number per group, were used. […]. The dose was administered by intraperitoneal injection, once a day, for 10 consecutive days. After administration, the mice were bred for 5 weeks. After observation, the mice were slaughtered and autopsied to determine the extent of pulmonary fibrosis. […].

[6] = test system: dogs
[7] = test system: mouse squamous cell carcinoma induced by 20-methylcholanthrene; assay: Inhibitory activity against mouse squamous cell carcinoma induced by 20-methylcholanthrene; format: in vivo, ddy strain mice; conditions: for Mortality: 62.5 mcg/mouse i.p. twice a week for 15 weeks; for Percentage inhibition: inhibition of carcinogenesis vs control, 62.5 mcg/mouse i.p.
Source text: An acetone solution of 20-MC was topically applied to the sheared back of ddy strain mice (male, 10 weeks old), twice a week, for 18 weeks. After 5 weeks from the beginning of the 20-MC treatment, 62.5 mcg/mouse of the test preparation was intraperitoneally applied, twice a week, during a period of 15 weeks. Within the first week after completion of the administration of test preparation, the region where 20-MC had been applied was pathologically examined for the incidence of carcinogenesis.

[8] = test system: rats
[9] = test system: rats; assay: Acute toxicity in intraperitoneal route (LD50) in rats; conditions: rat
[10] = test system: AH66 ascites hepatoma; assay: Carcinostatic activity against ascites hepatoma (ascites type) in rats; format: in vivo, Donryu strain rats; conditions: control = 100
Description: Each 1×10^6 AH66 cells were transplanted intraperitoneally into Donryu strain rats. After 24 hours, the test preparation was intraperitoneally administered once a day for 10 consecutive days. During a period of 30 days after the transplantation, the weight of each rat and the number of dead and survival were observed.

[11] = test system: HeLa S3 cell; assay: Action on cultivated HeLa S3 cell (growth inhibition); format: cell-based; conditions: for ID50: percentage growth inhibition in 72 hours of culture
[12] = 3.12 mg/kg x 10 i.p., 30 days observation

Row | Compound | Solubility [1] | Antimicrobial potency [2] | Antimicrobial potency B. Sub. [3] [U/mg] | Percentage inhibition ([4]; 0.03 mg/kg x 10) | Percentage inhibition ([4]; 0.1 mg/kg x 10) | Percentage inhibition ([4]; 0.3 mg/kg x 10) | Percentage inhibition ([4]; 0.9 mg/kg x 10) | Percentage inhibition ([4]; 2.7 mg/kg x 10) | ID50 [4] [mg/kg/day] | Grade: Relative value [5] | Incidence: Relative value [5] | Antimicrobial potency M. 607 [2] [U/mg] | Mortality [7] | Percentage inhibition [7] | LD50 [9] | Relative value of average survival days ([10]; 0.19 mg/kg x 10 i.p.) | Relative value of average survival days ([10]; 0.39 mg/kg x 10 i.p.) | Relative value of average survival days ([10]; 0.78 mg/kg x 10 i.p.) | Relative value of average survival days ([10]; 1.56 mg/kg x 10 i.p.) | Relative value of average survival days [10, 12] | also measured
1 | CC(=O)O.CC(=O)O.Cc1c(N)nc([C@H](CC(N)=O)NC[C@H](N)C(N)=O)nc1C(=O)N[C@H](C(=O)N[C@H](C)[C@@H](O)[C@H](C)C(=O)N[C@H](C(=O)NCCc1nc(-c2nc(C(=O)NCCCN[C@@H](C)c3ccccc3)cs2)cs1)[C@@H](C)O)[C@@H](O[C@@H]1O[C@@H](CO)[C@@H](O)[C@H](O)[C@@H]1O[C@H]1O[C@H](CO)[C@@H](O)[C@H](OC(N)=O)[C@@H]1O)c1cnc[nH]1 | Soluble in water, methanol, acetic acid, DMSO, DMF; also recorded: sparingly soluble in dioxane; also recorded: insoluble in ethanol | 7,620 u/mg | – | – | – | – | – | – | – | – | – | – | – | – | – | – | – | – | – | – | –
2 | Cc1c(N)nc([C@H](CC(N)=O)NC[C@H](N)C(N)=O)nc1C(=O)N[C@H](C(=O)N[C@H](C)[C@@H](O)[C@H](C)C(=O)N[C@H](C(=O)NCCc1nc(-c2nc(C(=O)NCCCN[C@@H](C)c3ccccc3)cs2)cs1)[C@@H](C)O)[C@@H](O[C@@H]1O[C@@H](CO)[C@@H](O)[C@H](O)[C@@H]1O[C@H]1O[C@H](CO)[C@@H](O)[C@H](OC(N)=O)[C@@H]1O)c1cnc[nH]1.O=S(=O)(O)O [NK631 monosulfate (copper-free form), 3-[(S)-1'-phenylethylamino]-propylaminobleomycin monosulfate (copper-free form)] | Soluble in water, methanol, acetic acid, DMSO, DMF; also recorded: sparingly soluble in dioxane; also recorded: insoluble in ethanol | 7,865 u/mg | 1550 | 19 | 24 | 39 | 68 | 84 | 0.35 | 0.25 | 0.36 | 7848 | 1/12 | 47.8 | 155.0 mg(w)/kg | 116 | 163 | 216 | 269 | 296 | Carcinostatic activity, times as high as that of the Bleomycin complex ([4]; relative to bleomycin complex): about 1.4 times; Fibrosis grade reduced to, as compared with RS form ([5]; relative to RS form): about 1/2; Fibrosis incidence reduced to, as compared with RS form ([5]; relative to RS form): about 1/2; Fibrosis grade reduced to, as compared with bleomycin complex ([5]; relative to bleomycin complex): 1/4; Fibrosis incidence reduced to, as compared with bleomycin complex ([5]; relative to bleomycin complex): 1/3; Subacute and chronic toxicity ([6]; dogs): comparable to Bleomycin complex; Toxicity to the lung ([6]; subacute and chronic toxicity study, species not stated separately): lower than that of the Bleomycin complex; Subacute and chronic toxicity [8]: comparable to Bleomycin complex
3 | Cc1c(N)nc([C@H](CC(N)=O)NC[C@H](N)C(N)=O)nc1C(=O)N[C@H](C(=O)N[C@H](C)[C@@H](O)[C@H](C)C(=O)N[C@H](C(=O)NCCc1nc(-c2nc(C(=O)NCCCN[C@@H](C)c3ccccc3)cs2)cs1)[C@@H](C)O)[C@@H](O[C@@H]1O[C@@H](CO)[C@@H](O)[C@H](O)[C@@H]1O[C@H]1O[C@H](CO)[C@@H](O)[C@H](OC(N)=O)[C@@H]1O)c1cnc[nH]1.Cl.Cl.[Cu] [3-[(S)-1'-phenylethylamino]propylaminobleomycin dihydrochloride (copper-containing form)] | Soluble in water, methanol | – | – | – | – | – | – | – | – | – | – | – | – | – | – | – | – | – | – | – | –
4 | Cc1c(N)nc(C(CC(N)=O)NCC(N)C(N)=O)nc1C(=O)NC(C(=O)NC(C)C(O)C(C)C(=O)NC(C(=O)NCCc1nc(-c2nc(C(=O)NCCCNC(C)c3ccccc3)cs2)cs1)C(C)O)C(OC1OC(CO)C(O)C(O)C1OC1OC(CO)C(O)C(OC(N)=O)C1O)c1c[nH]cn1 [NK631, 3-[(S)-1'-phenylethylamino]propylaminobleomycin] | – | – | – | – | – | – | – | – | – | – | – | – | – | – | – | – | – | – | – | – | Cell growth inhibition compared with Bleomycin complex ([11]; HeLa S3, 72 hours): twice as strongly as Bleomycin complex; ID50 [11]: 0.82 µg/mL (≈ 0.556 µM)
5 | Cc1c(N)nc(C(CC(N)=O)NCC(N)C(N)=O)nc1C(=O)NC(C(=O)NC(C)C(O)C(C)C(=O)NC(C(=O)NCCc1nc(-c2nc(C(=O)NCCCNC(C)c3ccccc3)cs2)cs1)C(C)O)C(OC1OC(CO)C(O)C(O)C1OC1OC(CO)C(O)C(OC(N)=O)C1O)c1cnc[nH]1.O=S(=O)(O)O (mixture of isomers) [RS form, 3-[(R,S)-1'-phenylethylamino]propylaminobleomycin monosulfate (copper-free form), reference compound] | – | – | 1400 | 13 | 51 | 51 | 60 | 78 | 0.31 | 0.49 | 0.63 | 7535 | 1/12 | 47.8 | 150.6 mg(w)/kg | 121 | 149 | 196 | 257 | 298 | ID50 [11]: 0.80 µg/mL
6 | Cc1c(N)nc([C@H](CC(N)=O)NC[C@H](N)C(N)=O)nc1C(=O)N[C@H](C(=O)N[C@H](C)[C@@H](O)[C@H](C)C(=O)N[C@H](C(=O)NCCc1nc(-c2nc(C(=O)NCCCN[C@@H](C)c3ccccc3)cs2)cs1)[C@@H](C)O)[C@@H](O[C@@H]1O[C@@H](CO)[C@@H](O)[C@H](O)[C@@H]1O[C@H]1O[C@H](CO)[C@@H](O)[C@H](OC(N)=O)[C@@H]1O)c1cnc[nH]1.Cl.Cl [NK631 dihydrochloride (copper-free form)] | Soluble in water, methanol, acetic acid, DMSO, DMF; also recorded: sparingly soluble in dioxane; also recorded: insoluble in ethanol | 7,834 u/mg and 7,820 u/mg and 7,845 u/mg | – | – | – | – | – | – | – | – | – | – | – | – | – | – | – | – | – | – | –
